This is an account of results in patent US20070196811A1, “Use Of Flavanol Derivatives For The Cryopreservation Of Living Cells” (priority 2004, published 2007).

This experiment relates to spermatozoa. Description: Post-thaw sperm motility after freezing in supplemented CryoProtec medium, analyzed by CASA. Conditions: for Percentage of motile spermatozoa: thawed after 24 h in liquid nitrogen, mean±SD, 5 experiments; for velocity parameters, including linear velocity (VSL) and lateral head displacement (AHL): post-thaw, Cryoprotec medium supplemented with compound. The experiment is classed as cell-based. The procedure: Aliquots of 50 μL of solutions of different 4-thioderivatives of flavan-3-ol of formula (I) hereof dissolved in PureSperm Wash medium (Nidacon International, Sweden), were added to 0.95 mL of the spermatozoa suspension (50 millions/mL) in CryoProtec freezing medium (Nidacon International, Sweden) in 1.8 mL Nunc vials in order to obtain final concentrations of 1, 10, 25, 50 and 100 μg/mL. Aliquots of 50 μL of solutions of (−)-epicatechin, a natural flavan-3-ol, were treated in the same way. As a control, 50 μL of PureSperm Wash medium (Nidacon International) were added instead of the solutions of the compounds of the invention (0 μg/mL). The percentage of motile cells in the different cellular suspensions was analyzed by CASA (Computer-Assisted Sperm Analysis) using an IVOS-IDENT (Hamilton-Thorn, Beverly, Mass.).
The cellular suspensions were processed for freezing using a standard freezing gradient as follows: cooling from room temperature to 4° C. in 30 min, from 4° C. to 0° C. in 3 min and immediately transferred to liquid nitrogen tanks. After 24 h in liquid nitrogen, the samples were thawed in a water bath at 37° C.
The percentage of motile spermatozoa in the different samples obtained above was analyzed by CASA. Since vials corresponding to the different compounds were in different boxes inside the nitrogen tanks, a control was used for each group of compounds.
Values are the mean±SD from a total of 5 experiments per concentration.

The mark [1] stands for this setting: 1 μg/mL (approximate) compound in freezing medium.
Setting [2] is: 10 μg/mL (approximate) compound in freezing medium.
Where [3] appears, read: 25 μg/mL (approximate) compound in freezing medium.
Where [4] appears, read: 50 μg/mL (approximate) compound in freezing medium.
Where [5] appears, read: 100 μg/mL (approximate) compound in freezing medium.

Regarding `Oc1cc(O)c2c(c1)O[C@H](c1ccc(O)c(O)c1)[C@H](O)C2` [(−)-epicatechin, reference compound], the “Percentage of motile spermatozoa” value stood at 46.8 ± 1.9% under setting [1]; 47.0 ± 2.2% under setting [2]; 47.6 ± 3.2% under setting [3]; 47.4 ± 2.6% under setting [4]; 46.8 ± 1.3% under setting [5]. Under “(−)-epicatechin versus control, all concentrations”, the “post-thaw motility recovery versus control” value is listed as “No significant differences”. For the setting “concentrations ranging from 1 to 100 μg/mL”, the “protection, evaluated in terms of sperm motility” value is listed as “no significant protection”. Under “summary statement”, the “storage stabilizing cryoprotective effect” value is reported as “no significant storage stabilizing cryoprotective effect”.

Take `COC(=O)[C@H](CS[C@H]1c2c(O)cc(O)cc2O[C@H](c2ccc(O)c(O)c2)[C@@H]1O)NC(C)=O` [Example 4, 4β-[S—(N-acetyl-O-methyl-cysteinyl)]epicatechin]: the “velocity parameters, including linear velocity (VSL) and lateral head displacement (AHL)” value is reported as “significantly higher”. Under setting [1], the “Percentage of motile spermatozoa” value is given as 47.6 ± 3.7%. For the same compound, the “Percentage of motile spermatozoa” value under setting [2] was found to be 49.8 ± 3.0%. Further, the “Percentage of motile spermatozoa” value under setting [3] stood at 54.8 ± 5.2 %. Under setting [4], the “Percentage of motile spermatozoa” value is listed as 59.4 ± 3.3 %. The “Percentage of motile spermatozoa” value under setting [5] is 59.2 ± 2.8 %.

Consider `N[C@@H](CS[C@H]1c2c(O)cc(O)cc2O[C@H](c2ccc(O)c(O)c2)[C@@H]1O)C(=O)O` [4β-(S-cysteinyl)epicatechin], for which the “velocity parameters, including linear velocity (VSL) and lateral head displacement (AHL)” value was “significantly higher”. For the same compound, the “Percentage of motile spermatozoa” value under setting [1] is 47.6 ± 3.0%. Besides, the “Percentage of motile spermatozoa” value under setting [2] turned out to be 52.0 ± 2.3%. Moreover, under setting [3], the “Percentage of motile spermatozoa” value amounted to 61.8 ± 2.6 %. In addition, the “Percentage of motile spermatozoa” value under setting [4] is reported as 69.8 ± 3.2 %. In addition, the “Percentage of motile spermatozoa” value under setting [5] came out at 70.2 ± 2.8 %.
